Results as given in patent publication US20230167105A1, “BCL-2 PROTEIN INHIBITORS” (Recurium IP Holdings, LLC, priority 2020, published 2023).

System: MOLT-4 cells
Assay: MOLT-4 Cell Proliferation Assay (CellTiter-Glo)
Type: cell-based
Details: Homo sapiens, 72 h, read-out: MOLT-4 CTG IC50
Procedure: Cell proliferation was measured using the CellTiter-Glo® Luminescent Cell Viability Assay. The assay involved the addition of a single reagent (CellTiter-Glo® Reagent) directly to cells cultured in serum-supplemented medium. MOLT-4 cells (ATCC, CRL-1582) were cultured according to ATCC recommendations and were seeded at 50,000 cells per well.
Each compound evaluated was prepared as a DMSO stock solution (10 mM). Compounds were tested in duplicate on each plate, with a 10-point serial dilution curve (1:3 dilution). The highest compound concentration was 10 μM (final), with a 0.1% final DMSO concentration. Plates were then incubated at 37° C., 5% CO2 for 72 h, cell plates were equilibrated at rt for approximately 30 mins. An equi-volume amount of CellTiter-Glo® Reagent (100 μL) was added to each well. Plates were mixed for 2 mins on an orbital shaker to induce cell lysis and then incubated at rt for 10 mins to stabilize the luminescent signal. Luminescence was recorded using a Envision plate reader according to CellTiter-Glo protocol. IC50 of each compound was calculated using GraphPad Prism by nonlinear regression analysis.

SMILES | IC50 [µM]
CCC12CC(C3=C(CN4CCN(c5ccc(C(=O)NS(=O)(=O)c6ccc(N[C@H](CCN7CCN(C(=O)CCCCCC(=O)N[C@H](C(=O)N8C[C@H](O)C[C@H]8C(=O)N[C@@H](C)c8ccc(-c9scnc9C)cc8)C(C)(C)C)CC7)CSc7ccccc7)c(S(=O)(=O)C(F)(F)F)c6)cc5)CC4)CCC(C)(C)C3)(C1)C2 [Example 14, (2S,4R)-1-((S)-2-(7-(4-((R)-3-((4-(N-(4-(4-((2-(3-ethylbicyclo[1.1.1]pentan-1-yl)-4,4-dimethylcyclohex-1-en-1-yl)methyl)piperazin-1-yl)benzoyl)sulfamoyl)-2-((trifluoromethyl)sulfonyl)phenyl)amino)-4-(phenylthio)butyl)piperazin-1-yl)-7-oxoheptanamido)-3,3-dimethylbutanoyl)-4-hydroxy-N—((S)-1-(4-(4-methylthiazol-5-yl)phenyl)ethyl)pyrrolidine-2-carboxamide] | 0.05 to 0.15
CC1(C)CCC(CN2CCN(c3ccc(C(=O)NS(=O)(=O)c4ccc(N[C@H](CCN5CCN(CCCCCNc6cccc7c6CN(C6CCC(=O)NC6=O)C7=O)CC5)CSc5ccccc5)c(S(=O)(=O)C(F)(F)F)c4)cc3)CC2)=C(C23CC(C(F)F)(C2)C3)C1 (stereo partly drawn) [Example 15, 4-[4-[[2-[3-(difluoromethyl)-1-bicyclo[1.1.1]pentanyl]-4,4-dimethyl-cyclohexen-1-yl]methyl]piperazin-1-yl]-N-[4-[[(1R)-3-[4-[5-[[2-(2,6-dioxo-3-piperidyl)-1-oxo-isoindolin-4-yl]amino]pentyl]piperazin-1-yl]-1-(phenylsulfanylmethyl)propyl]amino]-3-(trifluoromethylsulfonyl)phenyl]sulfonyl-benzamide] | 0.05 to 0.15
CC1(C)CCC(CN2CCN(c3ccc(C(=O)NS(=O)(=O)c4ccc(N[C@H](CCN5CCN(CCCCc6ccc7c(c6)C(=O)N(C6CCC(=O)NC6=O)C7=O)CC5)CSc5ccccc5)c(S(=O)(=O)C(F)(F)F)c4)cc3)CC2)=C(C23CC(C(F)F)(C2)C3)C1 (stereo partly drawn) [Example 17, 4-(4-((2-(3-(difluoromethyl)bicyclo[1.1.1]pentan-1-yl)-4,4-dimethylcyclohex-1-en-1-yl)methyl)piperazin-1-yl)-N-((4-(((2R)-4-(4-(4-(2-(2,6-dioxopiperidin-3-yl)-1,3-dioxoisoindolin-5-yl)butyl)piperazin-1-yl)-1-(phenylthio)butan-2-yl)amino)-3-((trifluoromethyl)sulfonyl)phenyl)sulfonyl)benzamide] | ≤ 0.05
CC1(C)CCC(CN2CCN(c3ccc(C(=O)NS(=O)(=O)c4ccc(N[C@H](CCN5CCN(CCCCc6ccc7c(c6)CN(C6CCC(=O)NC6=O)C7=O)CC5)CSc5ccccc5)c(S(=O)(=O)C(F)(F)F)c4)cc3)CC2)=C(C23CC(C(F)F)(C2)C3)C1 (stereo partly drawn) [Example 18, 4-(4-((2-(3-(difluoromethyl)bicyclo [1.1.1]pentan-1-yl)-4,4-dimethylcyclohex-1-en-1-yl)methyl)piperazin-1-yl)-N-((4-(((2R)-4-(4-(4-(2-(2,6-dioxopiperidin-3-yl)-1-oxoisoindolin-5-yl)butyl)piperazin-1-yl)-1-(phenylthio)butan-2-yl)amino)-3-((trifluoromethyl)sulfonyl)phenyl)sulfonyl)benzamide] | ≤ 0.05
CN(CCCNc1cccc2c1C(=O)N(C1CCC(=O)NC1=O)C2=O)CC[C@H](CSc1ccccc1)Nc1ccc(S(=O)(=O)NC(=O)c2ccc(N3CCN(CC4=C(C56CC(C(F)F)(C5)C6)CC(C)(C)CC4)CC3)cc2)cc1S(=O)(=O)C(F)(F)F (stereo partly drawn) [Example 19, 4-(4-((2-(3-(difluoromethyl)bicyclo[1.1.1]pentan-1-yl)-4,4-dimethylcyclohex-1-en-1-yl)methyl)piperazin-1-yl)-N-((4-(((2R)-4-((3-((2-(2,6-dioxopiperidin-3-yl)-1,3-dioxoisoindolin-4-yl)amino)propyl)(methyl)amino)-1-(phenylthio)butan-2-yl)amino)-3-((trifluoromethyl)sulfonyl)phenyl)sulfonyl)benzamide] | 0.05 to 0.15
